Data taken from patent publication US8168592B2 (Amgen Inc., priority 2005, dated 2012).
Read-outs that look alike come from different tables or passages of the source. Square brackets hold non-standard residues; d marks the D form. Peptide text beside a SMILES is read from it. 1Nal = N[C@@H](Cc1cccc2ccccc12)C(=O)O; hArg = N=C(N)NCCCC[C@H](N)C(=O)O; Cit = NC(=O)NCCC[C@H](N)C(=O)O; Phg = N[C@H](C(=O)O)c1ccccc1

What was measured:
[1] = monkey pharmacokinetic studies; settings: cynomolgus monkey, in vivo, iv, 6 mg/kg
Description: Monkey pharmacokinetic studies. […] A complete blood chemistry panel was performed on each monkey prior to each study day to obtain baseline values and ensure hematological recovery. A catheter was placed in the cephalic vein of three male Cynomolgus monkeys (Macaca fascicularis) for blood sampling during the study. For the intravenous (iv) leg of the study, a catheter was also placed in a saphenous vein for infusion of test compound. On each study day, the monkeys were placed in restraining chairs for the first 4 h of the study to facilitate drug administration and blood sampling. For administration of antagonist, each monkey received solubilized peptide (dose and SEQ ID listed in Table 11 below) either as a 30-min intravenous infusion (4 mL/kg/h) or as a single subcutaneous bolus (approx. 1.0 mL/animal). Blood samples were collected from each study animal at various times during and after drug administration, plasma samples (100 μL) were isolated by centrifugation and stored at −70° C. until analysis. For monkeys receiving intravenous infusion, such a sample was also taken at 20 min during the infusion.

[2] = molecular target: T1, CGRP1 receptor (human neuroblastoma cell (SK-N-MC) membrane) (Homo sapiens, UniProt O60894+Q16602); assay: CGRP1 binding assay (125I-hαCGRP displacement)
T1 construct: human neuroblastoma cell (SK-N-MC) membrane suspension; purchased PerkinElmer; host or cells: SK-N-MC human neuroblastoma cell membranes (endogenous receptor)
Description: CGRP1 binding experiments. […] The plates were incubated at room temperature for 2 hour with shaking at 60 rpm, then the contents of each well were filtered over 0.5% polyethyleneimine (PEI)-treated (at least one hour) GF/C 96-well filter plates. The GF/C filter plates were washed 6 times with ice-cold 50 mM Tris, pH 7.5 and dried in an oven at 55 C for 1 hour. The bottoms of the GF/C plates were then sealed, and 40 μl Microscint™ 20 was added to each well, then the tops of the GF/C plates were sealed with TopSeal™-A, a press-on adhesive sealing film, and the GF/C plates were counted with TopCount NXT (Packard). The data were analyzed by using ActivityBase (IDBS) or Prizm (GraphPad) software.

CGRP1 receptor = molecular target: T2, CGRP1 receptor (Homo sapiens, UniProt O60894+Q16602); assay: in vitro CGRP1 receptor mediated cAMP assay in SK-N-MC cells; format: cell-based; settings: read-out: IC50
T2 construct: SK-N-MC cells express CRLR and RAMP1, which form CGRP1 receptor; endogenous in cells; host or cells: SK-N-MC human neuroblastoma cells
Method in brief: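 Human SK-N-MC neuroblastoma cells, which endogenously express CRLR/RAMP1, were plated two days before assay and preincubated in plasma-free medium for 15 minutes at room temperature. Cells were then lysed for 30 minutes at 37° C, and cAMP in the lysates was quantified by competitive cAMP-AP chemiluminescent ELISA.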

T1 sequence (Q16602 23-461): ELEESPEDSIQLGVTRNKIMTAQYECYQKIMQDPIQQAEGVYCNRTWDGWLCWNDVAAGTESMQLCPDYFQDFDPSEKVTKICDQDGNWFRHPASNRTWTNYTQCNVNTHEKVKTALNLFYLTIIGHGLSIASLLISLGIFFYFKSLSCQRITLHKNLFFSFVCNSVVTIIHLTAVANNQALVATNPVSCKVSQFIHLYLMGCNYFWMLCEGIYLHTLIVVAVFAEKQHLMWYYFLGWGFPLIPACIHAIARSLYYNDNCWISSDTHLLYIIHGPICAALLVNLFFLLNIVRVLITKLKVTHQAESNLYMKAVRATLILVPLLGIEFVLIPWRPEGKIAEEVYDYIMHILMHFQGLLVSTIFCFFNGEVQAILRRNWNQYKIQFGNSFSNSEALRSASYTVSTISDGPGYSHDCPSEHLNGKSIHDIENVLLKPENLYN
T1 sequence (O60894 27-148): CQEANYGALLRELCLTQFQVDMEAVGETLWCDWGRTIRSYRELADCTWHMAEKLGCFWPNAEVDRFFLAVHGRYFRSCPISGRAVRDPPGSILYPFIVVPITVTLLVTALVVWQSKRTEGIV
T2 sequence (Q16602 23-461): as the sequence (Q16602 23-461) above
T2 sequence (O60894 27-148): as the sequence (O60894 27-148) above

Compound	Ki ([2]; Table 3B) [nM]	other results
CC(=O)N[C@@H](Cc1c[nH]c2ccccc12)C(=O)N[C@H](C(=O)N[C@H](C(=O)N[C@@H](Cc1c[nH]cn1)C(=O)N[C@@H](CCCNC(N)=O)C(=O)N[C@@H](CC(C)C)C(=O)N[C@@H](C)C(=O)NCC(=O)N[C@@H](CC(C)C)C(=O)N[C@@H](CC(C)C)C(=O)N[C@@H](CO)C(=O)N[C@@H](CCCNC(N)=O)C(=O)N[C@@H](CO)C(=O)NCC(=O)NCC(=O)N[C@H](C(=O)N[C@H](C(=O)N[C@@H](CCCCNC(=N)N)C(=O)N[C@@H](CCCCN)C(=O)N[C@@H](CC(N)=O)C(=O)N[C@@H](Cc1ccccc1)C(=O)N[C@H](C(=O)N1CCC[C@H]1C(=O)N[C@H](C(=O)N[C@@H](CC(=O)O)C(=O)N[C@H](C(=O)NCC(=O)N1[C@H](C(=O)N[C@@H](Cc2ccccc2)C(=O)N[C@@H](C)C(=O)N[C@@H](Cc2ccccc2)C(N)=O)C[C@@H]2CCCC[C@@H]21)C(C)C)[C@@H](C)O)C(C)C)C(C)C)C(C)C)[C@@H](C)O)C(C)C [SEQ ID NO: 658]	–	AUC0-inf [1]: 17000 ng·h/mL; AUC0-t [1]: 16900 ng·h/mL; MRT [1]: 25.2 min; Vd [1]: 0.174 L/kg; clearance [1]: 6.65 mL/min/kg; half-life [1]: 48 min
CC(=O)N[C@@H](Cc1c[nH]c2ccccc12)C(=O)N[C@H](C(=O)N[C@H](C(=O)N[C@@H](Cc1c[nH]cn1)C(=O)N[C@@H](CCCNC(N)=O)C(=O)N[C@@H](CC(C)C)C(=O)N[C@@H](C)C(=O)NCC(=O)N[C@@H](CC(C)C)C(=O)N[C@@H](CC(C)C)C(=O)N[C@@H](CO)C(=O)N[C@@H](CCCNC(N)=O)C(=O)N[C@@H](CO)C(=O)NCC(=O)NCC(=O)N[C@H](C(=O)N[C@H](C(=O)N[C@@H](CCCCNC(=N)N)C(=O)N[C@@H](CCCCN)C(=O)N[C@@H](CC(N)=O)C(=O)N[C@@H](Cc1ccccc1)C(=O)N[C@H](C(=O)N1CCC[C@H]1C(=O)N[C@H](C(=O)N[C@@H](CC(=O)O)C(=O)N[C@H](C(=O)NCC(=O)N1CCC[C@H]1C(=O)N[C@@H](Cc1cccc2ccccc12)C(=O)N[C@@H](C)C(=O)N[C@@H](Cc1ccccc1)C(N)=O)C(C)C)[C@@H](C)O)C(C)C)C(C)C)C(C)C)[C@@H](C)O)C(C)C [compound 674] (Ac-WVTH[Cit]LAGLLS[Cit]SGGVV[hArg]KNFVPTDVGP[1Nal]AF-NH2)	–	Ki ([2]; Table 3A): 0.64 nM; IC50 (CGRP1 receptor; Table 2A): 1.31 to 1.51 nM
CC(=O)NCSC[C@H](NC(=O)[C@@H](NC(=O)[C@H](C)NC(=O)[C@@H](NC(=O)[C@H](CC(=O)O)NC(=O)[C@H](CO)NC(=O)[C@H](C)N)[C@@H](C)O)[C@@H](C)O)C(=O)N[C@H](C(=O)N[C@H](C(=O)N[C@@H](Cc1c[nH]cn1)C(=O)N[C@@H](CCCNC(=N)N)C(=O)N[C@@H](CC(C)C)C(=O)N[C@@H](C)C(=O)NCC(=O)N[C@@H](CC(C)C)C(=O)N[C@@H](CC(C)C)C(=O)N[C@@H](CO)C(=O)N[C@@H](CCCNC(=N)N)C(=O)N[C@@H](CO)C(=O)NCC(=O)NCC(=O)N[C@H](C(=O)N[C@H](C(=O)N[C@@H](CCCCN)C(=O)N[C@@H](CC(N)=O)C(=O)N[C@@H](CC(N)=O)C(=O)N[C@@H](Cc1ccccc1)C(=O)N[C@H](C(=O)N1CCC[C@H]1C(=O)N[C@H](C(=O)N[C@@H](CC(N)=O)C(=O)N[C@H](C(=O)NCC(=O)N[C@@H](CO)C(=O)N[C@@H](CCCCN)C(=O)N[C@@H](C)C(=O)N[C@@H](Cc1ccccc1)C(N)=O)C(C)C)[C@@H](C)O)C(C)C)C(C)C)C(C)C)[C@@H](C)O)C(C)C [compound 707]	20.8	–
CC(C)[C@H](NC(=O)[C@@H](N)Cc1ccccc1)C(=O)N1CCC[C@H]1C(=O)N[C@H](C(=O)N[C@@H](CC(=O)O)C(=O)N[C@@H](C(=O)NCC(=O)N1CCC[C@H]1C(=O)N[C@@H](Cc1ccccc1)C(=O)N[C@@H](C)C(=O)N[C@@H](Cc1ccccc1)C(N)=O)C(C)C)[C@@H](C)O [compound 711]	> 1000	–
CC(C)[C@H](NC(=O)[C@H](CC(=O)O)NC(=O)[C@@H](NC(=O)[C@@H]1CCCN1C(=O)[C@@H](NC(=O)[C@@H](N)Cc1ccccc1)C(C)C)[C@@H](C)O)C(=O)NCC(=O)N1CCC[C@@H]1C(=O)N[C@@H](Cc1ccccc1)C(=O)N[C@@H](C)C(=O)N[C@@H](Cc1ccccc1)C(N)=O [compound 713]	> 1000	–
CC(C)[C@H](NC(=O)[C@H](CC(=O)O)NC(=O)[C@@H](NC(=O)[C@@H]1CCCN1C(=O)[C@@H](NC(=O)[C@@H](N)Cc1ccccc1)C(C)C)[C@@H](C)O)C(=O)NCC(=O)N1CCC[C@H]1C(=O)N[C@@H](Cc1ccccc1)C(=O)N[C@H](C)C(=O)N[C@@H](Cc1ccccc1)C(N)=O [compound 715]	> 1000	–
CC(C)[C@H](NC(=O)[C@@H](CC(=O)O)NC(=O)[C@@H](NC(=O)[C@@H]1CCCN1C(=O)[C@@H](NC(=O)[C@@H](N)Cc1ccccc1)C(C)C)[C@@H](C)O)C(=O)NCC(=O)N1CCC[C@H]1C(=O)N[C@@H](Cc1ccccc1)C(=O)N[C@@H](C)C(=O)N[C@@H](Cc1ccccc1)C(N)=O [compound 719]	> 1000	–
CC(=O)N[C@@H](Cc1c[nH]c2ccccc12)C(=O)N[C@H](C(=O)N[C@H](C(=O)N[C@@H](Cc1cnc[nH]1)C(=O)N[C@@H](CCCNC(N)=O)C(=O)N[C@@H](CC(C)C)C(=O)N[C@@H](C)C(=O)NCC(=O)N[C@@H](CC(C)C)C(=O)N[C@@H](CC(C)C)C(=O)N[C@@H](CO)C(=O)N[C@@H](CCCNC(N)=O)C(=O)N[C@@H](CO)C(=O)NCC(=O)NCC(=O)N[C@H](C(=O)N[C@H](C(=O)N[C@@H](CCCCNC(=N)N)C(=O)N[C@@H](CCCCN)C(=O)N[C@@H](CC(N)=O)C(=O)N[C@@H](Cc1ccccc1)C(=O)N[C@H](C(=O)N1CCC[C@H]1C(=O)N[C@H](C(=O)N[C@@H](CC(=O)O)C(=O)N[C@H](C(=O)NCC(=O)N1CCC[C@H]1C(=O)N[C@@H](Cc1ccccc1)C(=O)N[C@@H](C)C(=O)N[C@@H](Cc1ccccc1)C(N)=O)C(C)C)[C@@H](C)O)C(C)C)C(C)C)C(C)C)[C@@H](C)O)C(C)C [compound 739]	–	Ki ([2]; Table 3A): 0.53 nM
Ac-WVTHRLAGLLSRSGGVVKNNFVPTDVGPFAF-NH2 [compound 684]	0.08	–
H-FVPTDVAPFAF-NH2 [compound 717]	> 1000	–

More lines, main results first:

Ki ([2]; Table 3B) [nM]	Compound	other results
0.19	CC(C)C[C@H](NC(=O)CNC(=O)[C@H](C)NC(=O)[C@H](CC(C)C)NC(=O)[C@H](CCCNC(=N)N)NC(=O)[C@H](Cc1c[nH]cn1)NC(=O)[C@@H](NC(=O)[C@@H](NC(=O)[C@@H](N)c1ccccc1)C(C)C)[C@@H](C)O)C(=O)N[C@@H](CC(C)C)C(=O)N[C@@H](CO)C(=O)N[C@@H](CCCNC(=N)N)C(=O)N[C@@H](CO)C(=O)NCC(=O)NCC(=O)N[C@H](C(=O)N[C@H](C(=O)N[C@@H](CCCCN)C(=O)N[C@@H](CC(N)=O)C(=O)N[C@@H](CC(N)=O)C(=O)N[C@@H](Cc1ccccc1)C(=O)N[C@H](C(=O)N1CCC[C@H]1C(=O)N[C@H](C(=O)N[C@@H](CC(=O)O)C(=O)N[C@H](C(=O)NCC(=O)N1CCC[C@H]1C(=O)N[C@@H](Cc1ccccc1)C(=O)N[C@@H](C)C(=O)N[C@@H](Cc1ccccc1)C(N)=O)C(C)C)[C@@H](C)O)C(C)C)C(C)C)C(C)C [compound 703] (H-[Phg]VTHRLAGLLSRSGGVVKNNFVPTDVGPFAF-NH2)	–
12	CC(C)C[C@H](NC(=O)CNC(=O)[C@H](C)NC(=O)[C@H](CC(C)C)NC(=O)[C@H](CCCNC(=N)N)NC(=O)[C@H](Cc1c[nH]cn1)NC(=O)[C@@H](NC(=O)[C@@H](NC(=O)[C@H](CO)NC(=O)[C@@H](NC(=O)[C@H](C)NC(=O)[C@@H](NC(=O)[C@H](CC(=O)O)NC(=O)[C@H](CO)NC(=O)[C@H](C)N)[C@@H](C)O)[C@@H](C)O)C(C)C)[C@@H](C)O)C(=O)N[C@@H](CC(C)C)C(=O)N[C@@H](CO)C(=O)N[C@@H](CCCNC(=N)N)C(=O)N[C@@H](CO)C(=O)NCC(=O)NCC(=O)N[C@H](C(=O)N[C@H](C(=O)N[C@@H](CCCCN)C(=O)N[C@@H](CC(N)=O)C(=O)N[C@@H](CC(N)=O)C(=O)N[C@@H](Cc1ccccc1)C(=O)N[C@H](C(=O)N1CCC[C@H]1C(=O)N[C@H](C(=O)N[C@@H](CC(N)=O)C(=O)N[C@H](C(=O)NCC(=O)N[C@@H](CO)C(=O)N[C@@H](CCCCN)C(=O)N[C@@H](C)C(=O)N[C@@H](Cc1ccccc1)C(N)=O)C(C)C)[C@@H](C)O)C(C)C)C(C)C)C(C)C [compound 709]	–
> 1000	CC(C)[C@H](NC(=O)[C@H](CC(=O)O)NC(=O)[C@@H](NC(=O)[C@@H]1CCCN1C(=O)[C@@H](NC(=O)[C@@H](N)Cc1ccccc1)C(C)C)[C@@H](C)O)C(=O)NCC(=O)N1CCC[C@H]1C(=O)N[C@H](Cc1ccccc1)C(=O)N[C@@H](C)C(=O)N[C@@H](Cc1ccccc1)C(N)=O [compound 712]	–
> 1000	CC(C)[C@H](NC(=O)[C@H](CC(=O)O)NC(=O)[C@@H](NC(=O)[C@@H]1CCCN1C(=O)[C@@H](NC(=O)[C@@H](N)Cc1ccccc1)C(C)C)[C@@H](C)O)C(=O)NCC(=O)N1CCC[C@H]1C(=O)N[C@@H](Cc1ccccc1)C(=O)N[C@@H](C)C(=O)N[C@H](Cc1ccccc1)C(N)=O [compound 720]	–
0.06	Ac-WVTHRLAGLLSRSGGVVKNNFVPTDVGPFAF-NH2 [compound 5]	IC50 (CGRP1 receptor; Table 3, unconjugated CGRP peptide analogs, n = 2-4): 0.14 nM; IC50 (CGRP1 receptor; Table 4, 20 k PEG-conjugated vs unconjugated peptides, n = 2-4): 0.14 nM
0.58	Ac-WVTHRLAGLLSRSGGVVRCNFVPTDVGPFAF-NH2 [compound 680]	–
